# Source: patent US20070128669A1, “Serum-free expansion of cells in culture” (Institute for Chemical Genomics, priority 2005, published 2007)
# Columns and labels:
# [1] = tested on: Stat3 signaling pathway; experiment: pSTAT3-TA-Luc luciferase reporter assay in ESCs; format: cell-based, mouse; details: 24 hours exposure
# Description: Transfection and Luciferase assay. ESCs were cultured in 96-well cell culture dishes coated with a 0.1% aqueous gelatin solution and transfected with 0.2 μg/well of pSTAT3-TA-Luc (CLONTECH), using Lipofectamine 2000 (Invitrogen). After 6 hours, cells were washed and exposed to either IQ-1 at the indicated doses, or LIF, for 24 hours. Transfection efficiencies were normalized with pRL-null luciferase plasmid. Luciferase assays were performed with the DUAL-Luciferase Reporter Assay System (Promega).
# [2] = tested on: Nanog gene expression in ESCs; experiment: Real-time RT-PCR for Nanog in feeder-free ESCs; format: cell-based, mouse; details: feeder-free ESCs; IQ-1 4 μg/ml or LIF 1000 U/ml, 21 hrs
# Description: FIG. 2. […] Real-time RT-PCR for Nanog was performed. The control expression level of Nanog at day 0 was set at 1. FIG. 2B, removal of IQ-1 decreases Nanog gene expression in ESCs. IQ-1 was removed from ESCs which had been cultured under feeder-free system and in the presence of IQ-1 (4 μg/ml), for three days. At the end of this period, mRNA was isolated and real-time RT-PCR was performed to assay for Nanog gene expression. FIG. 2C, effects of IQ-1 were not mediated through Stat3 signaling pathway as judged by luciferase reporter assay. Feeder-free ESCs, transfected with the pSTAT3-TA-Luc reporter, were exposed to IQ-1 at the indicated doses, or LIF. All error bars represent mean±SD.
# Real-time RT-PCR. Total RNA was isolated and reverse-transcribed using SuperScript III (Invitrogen). Real-time RT-PCR (Sybr Green; BioRad) was performed using with the gene-specific primers: […]
# [3] = tested on: C2C12 myoblasts; experiment: Differentiation of C2C12 myoblasts in growth medium; format: cell-based; details: 10 μM in growth medium
# Description: FIG. 12. FIG. 12 illustrates that differentiation of C2C12 myoblasts was induced by 10 μM ICG-001 in growth medium, similar to differentiation medium.
# [4] = target: T1, CBP/β-catenin complex (Mus musculus, UniProt P45481); experiment: Co-immunoprecipitation of β-catenin with CBP in P19 cells; format: cell-based; details: Wnt3a, 10 μM, 24 hours
# T1 construct: endogenous in cells; host or cells: P19 cells (nuclear fraction)
# T1 sequence (P45481 2-2441 limits assumed, one chain of several): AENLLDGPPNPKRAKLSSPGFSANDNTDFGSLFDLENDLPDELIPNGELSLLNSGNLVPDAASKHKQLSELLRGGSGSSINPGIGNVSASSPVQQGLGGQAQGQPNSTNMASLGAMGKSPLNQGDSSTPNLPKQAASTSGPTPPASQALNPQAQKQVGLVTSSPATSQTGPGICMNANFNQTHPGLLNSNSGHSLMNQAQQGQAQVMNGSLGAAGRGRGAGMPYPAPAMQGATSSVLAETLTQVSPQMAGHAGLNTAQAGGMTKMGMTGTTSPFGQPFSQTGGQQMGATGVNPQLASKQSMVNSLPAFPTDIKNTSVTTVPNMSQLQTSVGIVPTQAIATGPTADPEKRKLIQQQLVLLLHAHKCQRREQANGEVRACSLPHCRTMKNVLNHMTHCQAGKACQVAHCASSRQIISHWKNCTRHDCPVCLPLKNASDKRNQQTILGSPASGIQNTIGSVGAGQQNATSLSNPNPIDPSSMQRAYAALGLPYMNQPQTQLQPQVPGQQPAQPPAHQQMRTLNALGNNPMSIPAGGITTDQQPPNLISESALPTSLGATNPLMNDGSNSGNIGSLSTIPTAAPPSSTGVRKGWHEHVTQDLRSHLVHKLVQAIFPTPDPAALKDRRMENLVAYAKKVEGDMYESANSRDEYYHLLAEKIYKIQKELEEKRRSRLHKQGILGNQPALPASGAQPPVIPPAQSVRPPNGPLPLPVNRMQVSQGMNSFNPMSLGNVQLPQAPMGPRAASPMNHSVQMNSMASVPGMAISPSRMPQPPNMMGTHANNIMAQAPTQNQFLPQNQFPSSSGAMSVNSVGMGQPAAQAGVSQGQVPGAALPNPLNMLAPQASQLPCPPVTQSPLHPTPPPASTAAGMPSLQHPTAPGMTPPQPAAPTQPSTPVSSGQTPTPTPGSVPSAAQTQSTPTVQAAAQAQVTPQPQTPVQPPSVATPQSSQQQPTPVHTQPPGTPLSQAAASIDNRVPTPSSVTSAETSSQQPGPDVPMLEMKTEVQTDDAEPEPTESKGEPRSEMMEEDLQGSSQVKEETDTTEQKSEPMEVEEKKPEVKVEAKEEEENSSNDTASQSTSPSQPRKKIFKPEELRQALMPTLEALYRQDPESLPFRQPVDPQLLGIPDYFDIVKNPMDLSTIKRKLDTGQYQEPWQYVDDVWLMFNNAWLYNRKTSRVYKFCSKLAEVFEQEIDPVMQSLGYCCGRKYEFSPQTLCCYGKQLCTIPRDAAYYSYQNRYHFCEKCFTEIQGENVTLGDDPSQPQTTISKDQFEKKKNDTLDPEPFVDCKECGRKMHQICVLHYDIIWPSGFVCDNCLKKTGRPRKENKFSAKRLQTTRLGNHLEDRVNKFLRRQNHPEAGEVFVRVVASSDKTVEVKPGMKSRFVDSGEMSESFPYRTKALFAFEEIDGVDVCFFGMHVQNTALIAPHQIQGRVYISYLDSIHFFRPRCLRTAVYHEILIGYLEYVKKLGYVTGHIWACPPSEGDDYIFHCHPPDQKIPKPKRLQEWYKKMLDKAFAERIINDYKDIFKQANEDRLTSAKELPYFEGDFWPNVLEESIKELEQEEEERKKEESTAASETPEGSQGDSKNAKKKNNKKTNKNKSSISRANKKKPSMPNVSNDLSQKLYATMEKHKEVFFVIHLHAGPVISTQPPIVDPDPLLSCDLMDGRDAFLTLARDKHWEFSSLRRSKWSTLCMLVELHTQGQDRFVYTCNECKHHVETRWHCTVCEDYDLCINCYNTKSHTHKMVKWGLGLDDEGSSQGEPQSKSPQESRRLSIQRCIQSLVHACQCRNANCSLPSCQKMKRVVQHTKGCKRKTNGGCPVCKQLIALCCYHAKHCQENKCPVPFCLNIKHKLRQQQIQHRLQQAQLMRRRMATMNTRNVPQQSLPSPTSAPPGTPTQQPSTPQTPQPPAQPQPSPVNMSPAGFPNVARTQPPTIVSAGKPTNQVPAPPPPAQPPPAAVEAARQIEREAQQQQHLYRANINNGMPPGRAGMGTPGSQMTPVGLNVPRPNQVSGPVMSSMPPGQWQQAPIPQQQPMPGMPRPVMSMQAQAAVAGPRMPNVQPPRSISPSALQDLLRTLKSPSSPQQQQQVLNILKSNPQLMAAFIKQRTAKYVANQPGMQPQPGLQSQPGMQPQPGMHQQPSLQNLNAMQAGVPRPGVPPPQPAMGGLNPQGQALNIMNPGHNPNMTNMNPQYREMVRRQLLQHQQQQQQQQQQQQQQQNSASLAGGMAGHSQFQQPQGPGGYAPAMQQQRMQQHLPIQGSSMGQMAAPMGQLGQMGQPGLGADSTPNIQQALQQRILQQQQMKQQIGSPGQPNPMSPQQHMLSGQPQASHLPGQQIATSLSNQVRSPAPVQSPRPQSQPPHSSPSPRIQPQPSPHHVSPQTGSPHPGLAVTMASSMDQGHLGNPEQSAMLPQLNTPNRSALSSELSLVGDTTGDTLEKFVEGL
# Description: (§1) Co-immunoprecipitation of β-catenin with CBP or p300 in P19 cells. Co-immunoprecipitation was performed as described in (27). Briefly, P19 cells were treated with 10 μM ICG-001 or 10 μM IQ-1 (control DMSO was 0.025%) for 24 hours, after which they were washed and lysed […]. Nuclear fraction was isolated and precleared with antibodies to CBP(A-22) or p300(N-15). β-catenin was detected using a mouse monoclonal antibody (Becton Dickinson) at a dilution of 1:5000.
# [5] = tested on: p300/β-catenin complex; experiment: Co-immunoprecipitation of β-catenin with p300 in P19 cells; format: cell-based; details: Wnt3a, 10 μM, 24 hours
# Description: as §1
# [6] = tested on: ESCs; experiment: Long term feeder-free culture of ESCs in serum-free (15% KSR) media; format: cell-based, mouse
# Description: FIG. 7. […] ESCs were cultured in 15% KSR, 4 μg/ml of IQ-1 and 100 ng/ml Wnt3a. ESCs were passaged 2-3 times per week at 1×10^5-1×10^6 cells per 6 cm dish and cells were counted.
# FIG. 8. […] AP activity of ESCs cultured for 7 days in IQ-1 containing media supplemented with 15% FCS or 15% KSR. […] (Error bars represent ±S.D.)
# FIG. 9. […] Over the 42-day culture period, ESCs cultured in the media in the presence of IQ-1 and Wnt3a maintain expression of the pluripotency markers, (a) Nanog, (b) Oct3/4 and (c) Rex-1. The expression level on day 0 was set as 1.
# Cell culture. ESCs, D3ES (ATCC CRL-1934) were maintained on Mitomycin C treated MEFs in mouse ESC medium containing DMEM (Invitrogen) supplemented with 15% FBS (Invitrogen), 0.1 mM MEM nonessential amino acids (Invitrogen), 0.1 mM 2-mercaptoethanol (Sigma), 2 mM L-glutamine (Invitrogen) and 1,000 U/ml LIF (CHEMICON). To remove MEFs, cells were collected by trypsinization and plated on gelatin-coated culture dishes for 20 min. Non-adherent cells consisting mainly of ESCs were replated on gelatin-coated culture dishes again. Non-adherent cells were used for further experiments. P19 cells were cultured according to conditions recommended by the ATCC. Cells were incubated at 37° C. in a 5% CO2 incubator. Purified Wnt3a was purchased (R&D Systems).
molecule,measurement,setting,value
LIF: cytokine leukemia inhibitory factor (CHEMICON),Stat3/luciferase expression,[1],elicited a significant response
same,Nanog expression,[2],only slightly increased Nanog levels
"O=C1[C@H](Cc2ccc(O)cc2)N2C(=O)CCN(C(=O)NCc3ccccc3)[C@H]2CN1Cc1cccc2ccccc12 [ICG-001, reference compound]",differentiation of C2C12 myoblasts,[3],induced the differentiation of C2C12 myoblasts
same,relative amount of β-catenin associated with CBP,[4],at the expense of the CBP/β-catenin interaction
same,p300/β-catenin interaction,[5],significantly enhanced the p300/β-catenin interaction
"Wnt3a: purified Wnt3a protein purchased from R&D Systems (protein, UniProt P56704 19-352, looked up) Protein Wnt-3a: SYPIWWSLAVGPQYSSLGSQPILCASIPGLVPKQLRFCRNYVEIMPSVAEGIKIGIQECQHQFRGRRWNCTTVHDSLAIFGPVLDKATRESAFVHAIASAGVAFAVTRSCAEGTAAICGCSSRHQGSPGKGWKWGGCSEDIEFGGMVSREFADARENRPDARSAMNRHNNEAGRQAIASHMHLKCKCHGLSGSCEVKTCWWSQPDFRAIGDFLKDKYDSASEMVVEKHRESRGWVETLRPRYTYFKVPTERDLVYYEASPNFCEPNPETGSFGTRDRTCNVSSHGIDGCDLLCCGRGHNARAERRREKCRCVFHWCCYVSCQECTRVYDVHTCK",AP activity of ESCs on addition of Wnt3a to IQ-1 containing 15% KSR media,"[6]; 7 days, IQ-1 containing media, 15% KSR",increases AP activity
same,"ESC proliferation, Wnt3a alone",[6]; KSR media,induced proliferation
same,"expression of stem cell markers Oct4, Nanog, Rex1, Wnt3a alone",[6]; KSR media,not sufficient to maintain the expression
same,"maintenance of undifferentiated status of ESCs, agent alone","[6]; KSR media, single agent",Neither Wnt3a nor IQ-1 alone was sufficient
